Assay results: patent US20260334439A1, “BCAT2 INHIBITORS” (Agios Pharmaceuticals, Inc., priority 2023, published 2026)

Target: T1, BCAT2 (Homo sapiens, UniProt O15382)
T1 sequence (O15382 28-392): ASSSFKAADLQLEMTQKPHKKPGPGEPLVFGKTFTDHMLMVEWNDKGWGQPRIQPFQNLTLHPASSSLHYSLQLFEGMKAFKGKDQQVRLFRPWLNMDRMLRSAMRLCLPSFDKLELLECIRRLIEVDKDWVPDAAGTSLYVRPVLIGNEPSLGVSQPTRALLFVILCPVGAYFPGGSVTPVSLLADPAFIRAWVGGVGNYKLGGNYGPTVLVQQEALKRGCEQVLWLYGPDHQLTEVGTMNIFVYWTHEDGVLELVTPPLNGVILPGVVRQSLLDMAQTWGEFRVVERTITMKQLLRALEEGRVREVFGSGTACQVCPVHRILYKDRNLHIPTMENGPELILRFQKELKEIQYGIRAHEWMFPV
Experiment: BCAT2 in vitro enzyme inhibition assay (hBCAT2, glutamate dehydrogenase/diaphorase/resazurin coupled fluorescence read)
Format: biochemical
Conditions: hBCAT2, 1 h preincubation at 25° C., one hour reaction; average where tested multiple times
How it was run: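 Coupled GDH/diaphorase/resazurin fluorescence (Ex 540/Em 590) read after 1 h reaction at 25 °C, SDS-stopped; enzyme (0.33 μg/mL in mix) first preincubated 1 h with compound, 10-point 3-fold series from 100 μM final, Tris pH 8.0 buffer with NaCl, BSA; technical duplicates, averaged across tests.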

| SMILES | IC50 |
| --- | --- |
| O=C(N[C@H]1CCC[C@@H](n2c(-c3ccccc3OC3CCOC3)nc3cnc(-c4nc[nH]n4)cc32)C1)c1cc(Cl)ccn1 (stereo partly drawn) [Example 87, 4-chloro-N-((1S,3R)-3-(2-(2-((tetrahydrofuran-3-yl)oxy)phenyl)-6-(1H-1,2,4-triazol-3-yl)-1H-imidazo[4,5-c]pyridin-1-yl)cyclohexyl)picolinamide] | > 1000 nM |
| N#Cc1ccccc1-c1nc2cnc(-c3nc(C(F)(F)F)co3)cc2n1[C@@H]1CCC[C@H](NC(=O)c2cc(F)ccc2F)C1 [Example 101, N-((1S,3R)-3-(2-(2-cyanophenyl)-6-(4-(trifluoromethyl)oxazol-2-yl)-1H-imidazo[4,5-c]pyridin-1-yl)cyclohexyl)-2,5-difluorobenzamide] | < 100 nM |
| COc1ccc(Cl)cc1C(=O)N[C@@H]1CCCC[C@H](n2c(-c3c(F)cccc3OC)nc3cnc(-c4nc[nH]n4)cc32)[C@H]1O [Example 109, 5-chloro-N-((1R,2S,3S)-3-(2-(2-fluoro-6-methoxyphenyl)-6-(1H-1,2,4-triazol-3-yl)-1H-imidazo[4,5-c]pyridin-1-yl)-2-hydroxycycloheptyl)-2-methoxybenzamide] | 500 to 1000 nM |
| COc1ccc(Cl)cc1C(=O)N[C@H]1CCCC[C@@H](n2c(-c3c(F)cccc3OC)nc3cnc(-c4nc[nH]n4)cc32)[C@@H]1O [Example 110, 5-chloro-N-((1S,2R,3R)-3-(2-(2-fluoro-6-methoxyphenyl)-6-(1H-1,2,4-triazol-3-yl)-1H-imidazo[4,5-c]pyridin-1-yl)-2-hydroxycycloheptyl)-2-methoxybenzamide] | < 100 nM |
| COc1ccnc(C(=O)N[C@H]2CCC[C@@H](n3c(-c4ncccc4OC(F)F)nc4cnc(-c5nc[nH]n5)cc43)C2)c1 [compound 64] | < 100 nM |
| CN1C[C@@H](NC(=O)c2cc(Cl)ccn2)C[C@@H](n2c(-c3ccccc3OCCO)nc3cnc(-c4ncccn4)cc32)C1 [Example 165, 4-chloro-N-((3S,5R)-5-(2-(2-(2-hydroxyethoxy)phenyl)-6-(pyrimidin-2-yl)-1H-imidazo[4,5-c]pyridin-1-yl)-1-methylpiperidin-3-yl)picolinamide] | < 100 nM |
| CC(CCO)Cc1nc2cnc(-c3nc[nH]n3)cc2n1[C@@H]1CCC[C@H](NC(=O)c2cc(Cl)ccn2)C1 (stereo partly drawn) [Example 95, 4-chloro-N-((1S,3R)-3-(2-(4-hydroxy-2-methylbutyl)-6-(1H-1,2,4-triazol-3-yl)-1H-imidazo[4,5-c]pyridin-1-yl)cyclohexyl)picolinamide] | > 1000 nM |
| CN1C[C@@H](NC(=O)c2cc(Cl)ccn2)C[C@@H](n2c(-c3ccccc3OCCO)nc3ccc(-c4ncccn4)cc32)C1 [Example 235, 4-chloro-N-((3S,5R)-5-(2-(2-(2-hydroxyethoxy)phenyl)-6-(pyr-imidin-2-yl)-1H-benzo[d]imid-azol-1-yl)-1-methylpiperidin-3-yl)picolinamide] | > 1000 nM |
| O=C(N[C@H]1C[C@@H](n2c(-c3ccccc3OCCO)nc3ccc(-c4nc[nH]n4)cc32)CC(F)(F)C1)c1cc(F)ccn1 [Example 232, N-((1S,5R)-3,3-difluoro-5-(2-(2-(2-hydroxyethoxy)phenyl)-6-(1H-1,2,4-triazol-3-yl)-1H-benzo[d]imidazol-1-yl)cyclohexyl)-4-fluoropicolinamide] | 100 to 500 nM |
| CS(=O)(=O)c1ccc(Cl)cc1C(=O)N[C@H]1CCC[C@@H](n2c(-c3ccccc3F)nc3cnc(-c4nc[nH]n4)cc32)C1 [Example 12, 5-chloro-N-((1S,3R)-3-(2-(2-fluorophenyl)-6-(1H-1,2,4-triazol-3-yl)-1H-imidazo[4,5-c]pyridin-1-yl)cyclohexyl)-2-(methylsulfonyl)benzamide] | > 1000 nM |
| O=C(N[C@@H]1C[C@H](n2c(-c3ccccc3OCCO)nc3ccc(-c4nc[nH]n4)cc32)CC(F)(F)C1)c1cc(F)ccn1 [Example 231, N-((1R,5S)-3,3-difluoro-5-(2-(2-(2-hydroxyethoxy)phenyl)-6-(1H-1,2,4-triazol-3-yl)-1H-benzo[d]imidazol-1-yl)cyclohexyl)-4-fluoropicolinamide] | < 100 nM |

Further lines, results first:

| IC50 | SMILES |
| --- | --- |
| < 100 nM | CO[C@H]1C[C@H](NC(=O)c2cc(F)ccc2F)C[C@H](n2c(-c3ccccc3OCCO)nc3cnc(-c4ncco4)cc32)C1 [Example 123, 2,5-difluoro-N-((1R,3S,5S)-3-(2-(2-(2-hydroxyethoxy)phenyl)-6-(oxazol-2-yl)-1H-imidazo[4,5-c]pyridin-1-yl)-5-methoxycyclohexyl)benzamide] |
| < 100 nM | N[C@@H]1[C@@H](NC(=O)c2cc(F)ccc2F)CCC[C@H]1n1c(-c2ccccc2F)nc2cnc(-c3nc[nH]n3)cc21 [Example 127, N-((1S,2R,3R)-2-amino-3-(2-(2-fluorophenyl)-6-(1H-1,2,4-triazol-3-yl)-1H-imidazo[4,5-c]pyridin-1-yl)cyclohexyl)-2,5-difluorobenzamide] |
| > 1000 nM | COc1ccc(Cl)cc1C(=O)N[C@@H]1C[C@@H](OC)C[C@H](n2c(-c3ccccc3F)nc3cnc(-c4nc[nH]n4)cc32)C1 [Example 107, 5-chloro-N-((1S,3R,5R)-3-(2-(2-fluorophenyl)-6-(1H-1,2,4-triazol-3-yl)-1H-imidazo[4,5-c]pyridin-1-yl)-5-methoxycyclohexyl)-2-methoxybenzamide] |
| < 100 nM | CC(=O)N1C[C@@H](NC(=O)c2cc(F)ccn2)C[C@@H](n2c(-c3ccccc3F)nc3cnc(-c4nc(C)co4)cc32)C1 [Example 166, N-((3S,5R)-1-acetyl-5-(2-(2-fluorophenyl)-6-(4-methyloxazol-2-yl)-1H-imidazo[4,5-c]pyridin-1-yl)piperidin-3-yl)-4-fluoropicolinamide] |
| > 1000 nM | CC(C)(Cc1nc2cnc(-c3nc[nH]n3)cc2n1[C@@H]1CCC[C@H](NC(=O)c2cc(Cl)ccn2)C1)C(N)=O [Example 44, N-((1S,3R)-3-(2-(3-amino-2,2-dimethyl-3-oxopropyl)-6-(1H-1,2,4-triazol-3-yl)-1H-imidazo[4,5-c]pyridin-1-yl)cyclohexyl)-4-chloropicolinamide] |
| < 100 nM | CN1C[C@H](NC(=O)c2cc(Cl)ccn2)C[C@H](n2c(-c3ccccc3OCCO)nc3cnc(-n4nccn4)cc32)C1 [Example 157, 4-chloro-N-((3R,5S)-5-(2-(2-(2-hydroxyethoxy)phenyl)-6-(2H-1,2,3-triazol-2-yl)-1H-imidazo[4,5-c]pyridin-1-yl)-1-methylpiperidin-3-yl)picolinamide] |
| < 100 nM | N[C@H]1[C@H](n2c(-c3ccccc3F)nc3ccc(-c4nc[nH]n4)cc32)CCC[C@@H]1N1Cc2ccc(Cl)cc2C1=O [Example 242, 2-((1S,2S,3R)-2-amino-3-(2-(2-fluorophenyl)-6-(1H-1,2,4-triazol-3-yl)-1H-benzo[d]imidazol-1-yl)cyclohexyl)-6-chloroisoindolin-1-one] |
| < 100 nM | NCCOc1ccc(Cl)cc1C(=O)N[C@H]1CCC[C@@H](n2c(-c3ccccc3F)nc3cnc(-c4nc[nH]n4)cc32)C1 [Example 42, 2-(2-aminoethoxy)-5-chloro-N-((1S,3R)-3-(2-(2-fluorophenyl)-6-(1H-1,2,4-triazol-3-yl)-1H-imidazo[4,5-c]pyridin-1-yl)cyclohexyl)benzamide] |
| > 1000 nM | CN1C[C@@H](NC(=O)c2cc(F)ccc2F)C[C@@H](n2c(-c3ccccc3OCCO)nc3cnc(-n4nccn4)cc32)C1 [Example 154, 2,5-difluoro-N-((3S,5R)-5-(2-(2-(2-hydroxyethoxy)phenyl)-6-(2H-1,2,3-triazol-2-yl)-1H-imidazo[4,5-c]pyridin-1-yl)-1-methylpiperidin-3-yl)benzamide] |
| < 100 nM | CN1C[C@H](NC(=O)c2cc(Cl)ccn2)C[C@H](n2c(-c3ccccc3OCCO)nc3ccc(-c4ncccn4)cc32)C1 [Example 234, 4-chloro-N-((3R,5S)-5-(2-(2-(2-hydroxyethoxy)phenyl)-6-(pyr-imidin-2-yl)-1H-benzo[d]imid-azol-1-yl)-1-methylpiperidin-3-yl)picolinamide] |
| < 100 nM | COc1ccc(Cl)cc1C(=O)N[C@H]1C[C@H](O)C[C@@H](n2c(CC(C)C)nc3cnc(-c4ncccn4)cc32)C1 [Example 111, 5-chloro-N-((1R,3S,5S)-3-hydroxy-5-(2-isobutyl-6-(pyrimidin-2-yl)-1H-imidazo[4,5-c]pyridin-1-yl)cyclohexyl)-2-methoxybenzamide] |
| 100 to 500 nM | CC(C)Cc1nc2cnc(-c3nc[nH]n3)cc2n1[C@@H]1CCC[C@H](NC(=O)c2cc(F)ccc2F)[C@H]1O [Example 121, 2,5-difluoro-N-((1S,2R,3R)-2-hydroxy-3-(2-isobutyl-6-(1H-1,2,4-triazol-3-yl)-1H-imidazo[4,5-c]pyridin-1-yl)cyclohexyl)benzamide] |
| < 100 nM | Cc1coc(-c2cc3c(cn2)nc(-c2ccccc2F)n3[C@@H]2CCC[C@H](N3Cc4ccc(F)cc4C3=O)[C@H]2O)n1 [Example 193, 6-fluoro-2-((1S,2S,3R)-3-(2-(2-fluorophenyl)-6-(4-methyloxazol-2-yl)-1H-imidazo[4,5-c]pyridin-1-yl)-2-hydroxycyclohexyl)isoindolin-1-one] |
| < 100 nM | N#Cc1ccccc1-c1nc2cnc(-c3nc[nH]n3)cc2n1[C@@H]1CCC[C@H](N2COc3ccc(Cl)cc3C2=O)C1 [Example 203, 2-(1-((1R,3S)-3-(6-chloro-4-oxo-2H-benzo[e][1,3]oxazin-3(4H)-yl)cyclohexyl)-6-(1H-1,2,4-triazol-3-yl)-1H-imidazo[4,5-c]pyridin-2-yl)benzonitrile] |
